In patent publication US9346809B2 (LEO PHARMA A/S, priority 2009, dated 2016) one finds EC50 data, which are given here for 19 molecules.

Where two headings read alike, the source gives them in different places.

Assay type in all cases: biochemical
Test [1] has as its target T1, JAK1 (aa 850-1154, catalytic domain, GST-tag) (Homo sapiens, UniProt P23458).
T1 construct: JAK1 (aa 850-1154) and TYK2 (aa 871-1187) are expressed with an N-terminally fused GST-tag; GST (N); purchased Carna Biosciences, Inc; host or cells: baculovirus expression system
Nature of the test: JAK kinase assay (HTRF, phosphorylation of TK substrate-biotin), JAK1. The settings on record: HTRF assay, ATP at Km (7 μM). An outline of the steps: (§1)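 HTRF KinEASE TK format; 1 μM biotinylated peptide, Km ATP: 7 μM (JAK1, 10 mM MgCl2, 50 nM SEB), 4 μM (JAK2), 2 μM (JAK3), 13 μM (TYK2, 50 nM SEB); 5 mM MgCl2 for the latter three. RT 20-30 min, 0.75% DMSO final. Overnight detection, EC50.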
(In general: TR-FRET usually uses a lanthanide donor and a delayed reading to cut background.)

In test [2] the target is T2, JAK2 (catalytic domain, His-tag) (Homo sapiens, UniProt O60674).
T2 construct: All four purified enzymes contain only the catalytic domain; His (N); purchased Carna Biosciences, Inc; host or cells: baculovirus expression system
T2 sequence (O60674 849-1124 limits assumed): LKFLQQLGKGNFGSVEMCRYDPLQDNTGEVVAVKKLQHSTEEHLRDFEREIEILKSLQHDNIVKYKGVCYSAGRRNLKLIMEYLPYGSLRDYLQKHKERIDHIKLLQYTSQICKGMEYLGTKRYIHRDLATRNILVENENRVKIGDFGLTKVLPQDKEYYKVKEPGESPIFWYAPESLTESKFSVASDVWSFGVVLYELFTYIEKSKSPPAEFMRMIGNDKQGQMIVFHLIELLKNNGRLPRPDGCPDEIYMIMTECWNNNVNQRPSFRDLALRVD
Nature of the test: JAK kinase assay (HTRF, phosphorylation of TK substrate-biotin), JAK2. Conditions: HTRF assay, ATP at Km (4 μM). An outline of the steps: as §1

The target of test [3] is T3, JAK3 (catalytic domain, His-tag) (Homo sapiens, UniProt P52333).
T3 construct: All four purified enzymes contain only the catalytic domain; His (N); purchased Carna Biosciences, Inc; host or cells: baculovirus expression system
T3 sequence (P52333 822-1111 limits assumed): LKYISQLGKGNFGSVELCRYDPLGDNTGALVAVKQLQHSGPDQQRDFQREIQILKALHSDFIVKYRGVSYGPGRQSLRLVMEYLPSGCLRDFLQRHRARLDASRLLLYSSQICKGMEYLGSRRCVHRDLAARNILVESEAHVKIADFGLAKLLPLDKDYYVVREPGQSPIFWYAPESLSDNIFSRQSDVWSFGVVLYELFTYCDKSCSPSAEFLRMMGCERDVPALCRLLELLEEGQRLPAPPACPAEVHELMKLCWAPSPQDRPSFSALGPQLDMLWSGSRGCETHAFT
As to the kind of experiment: JAK kinase assay (HTRF, phosphorylation of TK substrate-biotin), JAK3. The settings on record: HTRF assay, ATP at Km (2 μM). In a few lines:
as §1

Test [4] addresses T4, TYK2 (aa 871-1187, catalytic domain, GST-tag) (Homo sapiens, UniProt P29597).
T4 construct: JAK1 (aa 850-1154) and TYK2 (aa 871-1187) are expressed with an N-terminally fused GST-tag; GST (N); purchased Carna Biosciences, Inc; host or cells: baculovirus expression system
T4 sequence (P29597 871-1187): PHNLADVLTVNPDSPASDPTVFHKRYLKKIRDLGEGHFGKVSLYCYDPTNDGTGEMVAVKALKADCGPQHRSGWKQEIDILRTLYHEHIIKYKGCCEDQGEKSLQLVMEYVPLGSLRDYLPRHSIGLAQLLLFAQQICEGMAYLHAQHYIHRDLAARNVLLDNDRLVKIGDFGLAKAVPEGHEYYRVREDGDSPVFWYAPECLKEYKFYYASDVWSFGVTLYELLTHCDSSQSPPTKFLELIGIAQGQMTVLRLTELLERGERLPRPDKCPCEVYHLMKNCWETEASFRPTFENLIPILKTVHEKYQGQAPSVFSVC
Nature of the test: JAK kinase assay (HTRF, phosphorylation of TK substrate-biotin), TYK2. The settings on record: HTRF assay, ATP at Km (13 μM). An outline of the steps:
as §1

Where [5] appears, read: read-out: JAK1 kinase inhibitory activity (EC50 indicator).
Setting [6] is: read-out: JAK2 kinase inhibitory activity (EC50 indicator).
The mark [7] stands for this setting: read-out: JAK3 kinase inhibitory activity (EC50 indicator).
The mark [8] stands for this setting: read-out: TYK2 kinase inhibitory activity (EC50 indicator).
Where [9] appears, read: read-out: JAK1 kinase inhibitory activity (EC50).
The mark [10] stands for this setting: read-out: JAK2 kinase inhibitory activity (EC50).
[11] abbreviates: read-out: JAK3 kinase inhibitory activity (EC50).
[12] abbreviates: read-out: TYK2 kinase inhibitory activity (EC50).

T1 sequence (P23458 850-1154): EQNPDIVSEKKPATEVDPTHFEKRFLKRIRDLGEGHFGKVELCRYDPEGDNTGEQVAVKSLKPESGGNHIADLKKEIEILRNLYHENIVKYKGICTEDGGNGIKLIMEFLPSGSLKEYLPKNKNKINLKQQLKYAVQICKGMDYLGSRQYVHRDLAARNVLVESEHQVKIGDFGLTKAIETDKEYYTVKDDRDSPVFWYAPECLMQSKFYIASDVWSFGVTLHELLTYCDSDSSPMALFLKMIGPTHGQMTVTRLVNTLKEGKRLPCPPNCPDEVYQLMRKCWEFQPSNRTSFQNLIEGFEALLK

Broadly, the EC50 is the concentration needed to bring the measured effect to its halfway point. In the case of `Cc1cncc(C(=O)N2CCN(c3ncnc4[nH]ccc34)CC23CC3)n1` [Example 418, (6-Methyl-pyrazin-2-yl)-[7-(7H-pyrrolo[2,3-d]pyrimidin-4-yl)-4,7-diaza-spiro[2.5]oct-4-yl]-methanone], the concentration giving a half-maximal response (EC50) in test [1] (setting [5]), in test [2] (setting [6]), in test [3] (setting [7]) and in test [4] (setting [8]) was under 100 nM throughout.

For `Cc1nc2ccccc2nc1C(=O)N1CCN(c2ncnc3[nH]ccc23)CC12CC2` [Example 419, (3-Methyl-quinoxalin-2-yl)-[7-(7H-pyrrolo[2,3-d]pyrimidin-4-yl)-4,7-diaza-spiro[2.5]oct-4-yl]-methanone], the EC50 in test [1] (setting [5]), in test [2] (setting [6]), in test [3] (setting [7]) and in test [4] (setting [8]) was under 100 nM each time.

On to `CS(=O)(=O)c1ccc(CC(=O)N2CCN(c3ncnc4[nH]ccc34)CC23CC3)cc1` [Example 420, 2-(4-Methanesulfonyl-phenyl)-1-[7-(7H-pyrrolo[2,3-d]pyrimidin-4-yl)-4,7-diaza-spiro[2.5]oct-4-yl]-ethanone], for which the EC50 in test [1] (setting [5]) was under 100 nM; in test [2] (setting [6]) it was under 100 nM; in test [3] (setting [7]) it was under 100 nM; in test [4] (setting [8]), over 500 nM.

In the case of `O=C(c1cnccn1)N1[C@@H]2CC[C@H]1CN(c1ncnc3[nH]ccc13)C2` [Example 421, Pyrazin-2-yl-[3-(7H-pyrrolo[2,3-d]pyrimidin-4-yl)-3,8-diaza-bicyclo[3.2.1]oct-8-yl]-methanone], the EC50 is under 100 nM in test [1] (setting [5]), under 100 nM in test [2] (setting [6]), 100 to 500 nM in test [3] (setting [7]) and over 500 nM in test [4] (setting [8]).

In the case of `CC(C)CNS(=O)(=O)c1csc(C(=O)N2CCN(c3ncnc4[nH]ccc34)CC23CC3)c1` [Example 423, 5-[7-(7H-Pyrrolo[2,3-d]pyrimidin-4-yl)-4,7-diaza-spiro[2.5]octane-4-carbonyl]-thiophene-3-sulfonic acid isobutyl-amide], the EC50 was under 100 nM in test [1] (setting [5]), under 100 nM in test [2] (setting [6]), 100 to 500 nM in test [3] (setting [7]) and over 500 nM in test [4] (setting [8]).

As to `O=C(c1ccc(S(=O)(=O)NCc2ccco2)cc1)N1CCN(c2ncnc3[nH]ccc23)CC12CC2` [Example 426, N-Furan-2-ylmethyl-4-[7-(7H-pyrrolo[2,3-d]pyrimidin-4-yl)-4,7-diaza-spiro[2.5]octane-4-carbonyl]-benzenesulfonamide], the EC50 was under 100 nM in test [1] (setting [5]), under 100 nM in test [2] (setting [6]), under 100 nM in test [3] (setting [7]) and 100 to 500 nM in test [4] (setting [8]).

On to `Cc1ccc(CNS(=O)(=O)c2ccc(C(=O)N3CCN(c4ncnc5[nH]ccc45)CC34CC4)cc2)o1` [Example 427, N-(5-Methyl-furan-2-ylmethyl)-4-[7-(7H-pyrrolo[2,3-d]pyrimidin-4-yl)-4,7-diaza-spiro[2.5]octane-4-carbonyl]-benzenesulfonamide], for which the EC50 in test [1] (setting [5]), in test [2] (setting [6]), in test [3] (setting [7]) and in test [4] (setting [8]) was under 100 nM throughout.

Regarding `CC(C)(C)OC(=O)NCCNS(=O)(=O)c1ccc(C(=O)N2CCN(c3ncnc4[nH]ccc34)CC23CC3)cc1` [Example 428, (2-{4-[7-(7H-Pyrrolo[2,3-d]pyrimidin-4-yl)-4,7-diaza-spiro[2.5]octane-4-carbonyl]-benzenesulfonylamino}-ethyl)-carbamic acid tert-butyl ester], the EC50 in test [1] (setting [5]) was under 100 nM; in test [2] (setting [6]), under 100 nM; in test [3] (setting [7]), under 100 nM; in test [4] (setting [8]) it was 100 to 500 nM.

With `N#Cc1ccc(C2(C(=O)N3CCN(c4ncnc5[nH]ccc45)CC34CC4)CC2)cc1` [Example 429, 4-{1-[7-(7H-Pyrrolo[2,3-d]pyrimidin-4-yl)-4,7-diaza-spiro[2.5]octane-4-carbonyl]-cyclopropyl}-benzonitrile], the EC50 was under 100 nM in test [1] (setting [5]), under 100 nM in test [2] (setting [6]), under 100 nM in test [3] (setting [7]) and 100 to 500 nM in test [4] (setting [8]).

Regarding `CS(=O)(=O)Nc1ccc(C(=O)N2CCN(c3ncnc4[nH]ccc34)CC23CC3)cc1` [Example 430, N-{4-[7-(7H-Pyrrolo[2,3-d]pyrimidin-4-yl)-4,7-diaza-spiro[2.5]octane-4-carbonyl]-phenyl}-methanesulfonamide], the EC50 in test [1] (setting [5]), in test [2] (setting [6]), in test [3] (setting [7]) and in test [4] (setting [8]) was under 100 nM each time.

For the molecule `CCCS(=O)(=O)Nc1ccc(C(=O)N2CCN(c3ncnc4[nH]ccc34)CC23CC3)cc1` [Example 431, Propane-1-sulfonic acid {4-[7-(7H-pyrrolo[2,3-d]pyrimidin-4-yl)-4,7-diaza-spiro[2.5]octane-4-carbonyl]-phenyl}-amide], the EC50 in test [1] (setting [5]) was under 100 nM; in test [2] (setting [6]) it was under 100 nM; in test [3] (setting [7]), 100 to 500 nM; in test [4] (setting [8]), 100 to 500 nM.

For `CC(C)S(=O)(=O)Nc1ccc(C(=O)N2CCN(c3ncnc4[nH]ccc34)CC23CC3)cc1` [Example 432, Propane-2-sulfonic acid {4-[7-(7H-pyrrolo[2,3-d]pyrimidin-4-yl)-4,7-diaza-spiro[2.5]octane-4-carbonyl]-phenyl}-amide], the EC50 is under 100 nM in test [1] (setting [5]), under 100 nM in test [2] (setting [6]), under 100 nM in test [3] (setting [7]) and 100 to 500 nM in test [4] (setting [8]).

As to `COCCS(=O)(=O)c1ccc(C(=O)N2CCN(c3ncnc4[nH]ccc34)CC23CC3)cc1` [Example 433, [4-(2-Methoxy-ethanesulfonyl)-phenyl]-[7-(7H-pyrrolo[2,3-d]pyrimidin-4-yl)-4,7-diaza-spiro[2.5]oct-4-yl]-methanone], the half-maximal effective concentration (EC50) was under 100 nM in test [1] (setting [5]), under 100 nM in test [2] (setting [6]), 100 to 500 nM in test [3] (setting [7]) and 100 to 500 nM in test [4] (setting [8]).

For `NS(=O)(=O)c1ccc(OCC(=O)N2CCN(c3ncnc4[nH]ccc34)CC23CC3)c(F)c1` [Example 434, 3-Fluoro-4-{2-oxo-2-[7-(7H-pyrrolo[2,3-d]pyrimidin-4-yl)-4,7-diaza-spiro[2.5]oct-4-yl]-ethoxy}-benzenesulfonamide], the EC50 in test [1] (setting [9]), in test [2] (setting [10]), in test [3] (setting [11]) and in test [4] (setting [12]) was under 100 nM each time.

`NS(=O)(=O)c1cnn(CCC(=O)N2CCN(c3ncnc4[nH]ccc34)CC23CC3)c1` [Example 435, 1-{3-Oxo-3-[7-(7H-pyrrolo[2,3-d]pyrimidin-4-yl)-4,7-diaza-spiro[2.5]oct-4-yl]-propyl}-1H-pyrazole-4-sulfonic acid amide]: the half-maximal effective concentration (EC50) in test [1] (setting [9]) was under 100 nM; in test [2] (setting [10]), under 100 nM; in test [3] (setting [11]), under 100 nM; in test [4] (setting [12]), 100 to 500 nM.

On to `O=C(NC1CCCCC1)N1CCN(c2ncnc3[nH]ccc23)CC12CC2` [Example 436, 7-(7H-Pyrrolo[2,3-d]pyrimidin-4-yl)-4,7-diaza-spiro[2.5]octane-4-carboxylic acid cyclohexylamide], for which the concentration giving a half-maximal response (EC50) is under 100 nM in test [1] (setting [9]), under 100 nM in test [2] (setting [10]), under 100 nM in test [3] (setting [11]) and 100 to 500 nM in test [4] (setting [12]).

`S=C(NC1CCCCC1)N1CCN(c2ncnc3[nH]ccc23)CC12CC2` [Example 437, 7-(7H-Pyrrolo[2,3-d]pyrimidin-4-yl)-4,7-diaza-spiro[2.5]octane-4-carbothioic acid cyclohexylamide]: the EC50 is over 500 nM in test [1] (setting [9]), 100 to 500 nM in test [2] (setting [10]), over 500 nM in test [3] (setting [11]) and over 500 nM in test [4] (setting [12]).

Take `S=C(NCc1ccccc1)N1CCN(c2ncnc3[nH]ccc23)CC12CC2` [Example 438, 7-(7H-Pyrrolo[2,3-d]pyrimidin-4-yl)-4,7-diaza-spiro[2.5]octane-4-carbothioic acid benzylamide]: the EC50 in test [1] (setting [9]) is under 100 nM; in test [2] (setting [10]) it was under 100 nM; in test [3] (setting [11]), 100 to 500 nM; in test [4] (setting [12]) it was 100 to 500 nM.

As for `Cc1ccc(S(=O)(=O)N2CCN(c3ncnc4[nH]ccc34)CC23CC3)cc1` [Example 439, 4-[4-(Toluene-4-sulfonyl)-4,7-diazaspiro[2.5]oct-7-yl]-7H-pyrrolo[2,3-d]pyrimidine], the EC50 in test [1] (setting [9]) is under 100 nM; in test [2] (setting [10]), under 100 nM; in test [3] (setting [11]), under 100 nM; in test [4] (setting [12]) it was 100 to 500 nM.
